# In US20100009922A1, “HYPOTENSIVE PEPTIDES FROM SOY PROTEINS AND METHOD OF PREPARATION” (priority 2008, published 2010):
# Where no end group is shown, it is not given here.
# Molecular target: T1, rabbit lung angiotensin converting enzyme (Oryctolagus cuniculus, UniProt P12822)
# T1 construct: rabbit lung angiotensin converting enzyme (Sigma Chemical Company, St. Louis, Mo.); purchased Sigma Chemical Company, St. Louis, Mo; host or cells: rabbit lung (tissue-derived enzyme)
# T1 sequence (P12822 34-1310): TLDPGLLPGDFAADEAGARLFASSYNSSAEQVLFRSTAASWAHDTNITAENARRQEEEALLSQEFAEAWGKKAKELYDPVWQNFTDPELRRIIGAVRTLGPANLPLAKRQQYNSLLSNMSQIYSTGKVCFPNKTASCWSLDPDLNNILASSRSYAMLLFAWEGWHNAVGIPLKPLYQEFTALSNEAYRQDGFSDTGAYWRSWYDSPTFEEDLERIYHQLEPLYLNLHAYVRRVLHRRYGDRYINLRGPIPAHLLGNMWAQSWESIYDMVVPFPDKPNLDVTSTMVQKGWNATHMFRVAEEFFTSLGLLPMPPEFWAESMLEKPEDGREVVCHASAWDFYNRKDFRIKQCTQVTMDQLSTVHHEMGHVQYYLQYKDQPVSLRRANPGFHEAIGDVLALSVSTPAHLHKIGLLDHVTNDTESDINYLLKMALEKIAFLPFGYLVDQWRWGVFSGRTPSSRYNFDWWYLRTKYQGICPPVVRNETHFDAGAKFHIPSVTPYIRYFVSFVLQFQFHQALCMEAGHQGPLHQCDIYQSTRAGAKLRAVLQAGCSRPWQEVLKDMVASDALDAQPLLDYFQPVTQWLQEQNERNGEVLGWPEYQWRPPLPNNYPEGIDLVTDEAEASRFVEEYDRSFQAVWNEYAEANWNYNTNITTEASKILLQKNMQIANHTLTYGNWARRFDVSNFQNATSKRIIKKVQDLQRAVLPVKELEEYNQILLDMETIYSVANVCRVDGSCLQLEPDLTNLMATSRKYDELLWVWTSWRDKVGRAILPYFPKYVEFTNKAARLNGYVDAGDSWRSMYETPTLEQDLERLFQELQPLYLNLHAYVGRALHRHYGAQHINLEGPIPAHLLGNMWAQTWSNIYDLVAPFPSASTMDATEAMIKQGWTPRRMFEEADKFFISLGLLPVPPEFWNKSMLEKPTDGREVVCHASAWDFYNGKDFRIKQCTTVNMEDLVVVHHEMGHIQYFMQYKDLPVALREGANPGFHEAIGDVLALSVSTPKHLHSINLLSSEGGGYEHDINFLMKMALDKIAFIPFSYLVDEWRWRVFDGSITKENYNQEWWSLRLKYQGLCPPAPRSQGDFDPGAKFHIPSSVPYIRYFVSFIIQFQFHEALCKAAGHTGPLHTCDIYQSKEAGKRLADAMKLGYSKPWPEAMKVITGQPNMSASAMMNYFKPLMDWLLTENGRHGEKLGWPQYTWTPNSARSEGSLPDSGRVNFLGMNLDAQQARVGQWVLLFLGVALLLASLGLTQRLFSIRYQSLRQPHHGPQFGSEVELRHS
# Experiment: ACE inhibitory activity, FAPGG substrate
# Format: biochemical
# Details: synthetic peptides, 37° C., 30 minutes, read-out: ACE Inhibition (IC50)
# Protocol: Angiotensin-I-converting enzyme inhibitory activity was determined using FAPGG as the substrate. A mixture containing 100 μl of 1 mM FAPGG, 20 μl of the soy peptide solution, and 80 μl of reaction solution (100 mM Tris-HCl, pH 8.3, containing 0.3 M NaCl, 10 mM ZnCl2, and 0.025 U/ml rabbit lung angiotensin converting enzyme (Sigma Chemical Company, St. Louis, Mo.)) was added to a 96-well plate. The reaction was carried out at 37° C. for 30 minutes and the absorbance of the mixture was read using a spectrophotometry set at 340 nm to determine the enzyme activity. 20 μl of distilled water was used in the place of the soy peptide solution in each assay as a negative control. The inhibitory potency (IC50) of each fraction of the soy peptides was determined from plots of percentage inhibition vs. log 10[soy peptide] (mg/L). IC50 value of Angiotensin-I-converting enzyme, defined as the amount of soy peptide that produced a 50% inhibition of ACE activity, was determined for selected fractions. Captopril was used as the positive control.
row,IC50,Substance
1,7.2 ± 1.7 µM,"IPRPRPRP [IP-8, IPRPRPRP]"
2,121 ± 1.7 µM,"LKPDNR [LR-6, LKPDNR]"
3,66 ± 15.3 µM,"PIPFP [PP-5, PIPFP]"
4,46.1 ± 5.2 µM,"PVNKP [PP-5-1, PVNKP]"
